Results published in the NIST ThermoML archive (doi:10.1016/j.fluid.2014.04.004).
Numbers after ± are expanded uncertainties.

Key:
[1] = Liquid, Closed cell (Static) method
[2] = excess molar enthalpy (molar enthalpy of mixing); xn = mol fraction of the nth substance listed; conditions: 303.15 K, 101 kPa, Liquid, Calvet calorimetry

C1CCCCC1 [cyclohexane]
[1]
Conditions	vapor or sublimation pressure [kPa]
283.32 K	6.389 ± 0.023
288.28 K	8.195 ± 0.026
293.27 K	10.42 ± 0.031
298.25 K	13.17 ± 0.037
303.27 K	16.45 ± 0.046
313.24 K	24.97 ± 0.062
323.21 K	36.72 ± 0.086
333.21 K	52.48 ± 0.12
343.18 K	72.98 ± 0.15
353.14 K	99.11 ± 0.2

Cc1cncc(C)c1 [3,5-dimethylpyridine]
[1]
Conditions	vapor or sublimation pressure [kPa]
273.5 K	0.04 ± 0.001
283.45 K	0.085 ± 0.002
293.47 K	0.172 ± 0.002
303.54 K	0.331 ± 0.004
313.56 K	0.612 ± 0.006
323.59 K	1.078 ± 0.01
333.66 K	1.824 ± 0.011
343.62 K	2.973 ± 0.014
353.63 K	4.688 ± 0.018

Cc1cccc(C)n1 [2,6-dimethylpyridine] + C1CCCCC1
[2]
Conditions	excess molar enthalpy [kcal/mol]
x1 = 0.09	0.123 ± 0.00263
x1 = 0.22	0.239 ± 0.00311
x1 = 0.275	0.269 ± 0.00311
x1 = 0.308	0.281 ± 0.00311
x1 = 0.434	0.299 ± 0.00335
x1 = 0.529	0.283 ± 0.00335
x1 = 0.669	0.226 ± 0.00287
x1 = 0.806	0.142 ± 0.00263
x1 = 0.8998	0.0748 ± 0.00263

Cc1cncc(C)c1 [3,5-dimethylpyridine] + C1CCCCC1
[2]
Conditions	excess molar enthalpy [kcal/mol]
x1 = 0.085	0.112 ± 0.00263
x1 = 0.221	0.227 ± 0.00311
x1 = 0.312	0.276 ± 0.00311
x1 = 0.386	0.295 ± 0.00335
x1 = 0.515	0.306 ± 0.00335
x1 = 0.635	0.279 ± 0.00311
x1 = 0.735	0.217 ± 0.00287
x1 = 0.83	0.149 ± 0.00263
x1 = 0.899	0.0951 ± 0.00263

Cc1cccc(C)n1 [2,6-dimethylpyridine]
[1]
Conditions	vapor or sublimation pressure [kPa]
283.37 K	0.3 ± 0.004
288.33 K	0.42 ± 0.004
293.3 K	0.581 ± 0.006
298.3 K	0.794 ± 0.007
303.27 K	1.07 ± 0.01
313.27 K	1.879 ± 0.012
323.24 K	3.163 ± 0.015
333.21 K	5.14 ± 0.019
343.2 K	8.101 ± 0.026
353.14 K	12.23 ± 0.034
